Source: patent US11298388B2, “Psychoactive alkaloid extraction and composition with controlled dephosphorylation” (PSILO SCIENTIFIC LTD, priority 2020, dated 2022)
Like-named read-outs stand apart in the source and are kept apart here.

Columns and labels:
[1] = Isoelectric point / maximum stability pH; type: physicochemical
Method: The pH of the partially concentrated extract of Example 1, which was an aqueous extract, was adjusted to pH 4.0 (+/−0.5) by adding 2 M phosphoric acid and centrifuged for 15 minutes at 3000 g to remove any solid precipitate. The pH of 4 corresponds to the isoelectric point of psilocybin, and psilocin's polarity is such that it is partitioned onto the resin, thus allowing effective binding of the psychoactive alkaloids psilocybin and psilocin to the macroporous resin. Norbaeocystin and baeocystin are phosphorylated and behave in the same way as psilocybin. The supernatant obtained was loaded onto a column of Amberlite® XAD4, a non-ionic macroporous resin (50.34 g of dry resin) at a flow rate of 2 bed volumes per hour, to allow components in the supernatant to be adsorbed onto the macroporous resin. After all 2.5 L of the extract was loaded onto the column of macroporous resin, the column was washed in a single pass with 5 bed volumes of reverse osmosis water at room temperature. This was followed by elution with 5 bed volumes of 5% ethanol (by weight), again at room temperature. Finally, the column was washed in a single pass with 5 bed volumes of 100% ethanol. The elution was performed at room temperature. Each of these three fractions was collected separately. The particular order for the washing steps and the elution was selected to be in the order of the polarity of the solvents. […]

[2] = Oxidation (decay) of psilocin when exposed to air, own data
[3] = cited from earlier work

## CN(C)CCc1c[nH]c2cccc(O)c12 [Psilocin, psilocin]
[1]
  maximum stability pH: 4
[2]; at 20 hours when shielded from light
  decay (oxidation of psilocin): 40-60%
[2]; moist and/or high light environment, after 5 hours
  decay (oxidation of psilocin): 25%
[2]; moist and/or high light environment, within 30 minutes
  decay (oxidation of psilocin): about 10%
[3]; in acetone
  solubility: not soluble
[3]; in ethanol
  solubility: not soluble
[3]; in isopropanol
  solubility: not soluble
[3]; in methanol
  solubility: soluble
[3]; in water
  solubility: soluble

## CN(C)CCc1c[nH]c2cccc(OP(=O)(O)O)c12 [Psilocybin, psilocybin]
[3]; in acetone
  solubility: not soluble
[3]; in ethanol
  solubility: not soluble
[3]; in isopropanol
  solubility: not soluble
[3]; in methanol
  solubility: soluble
[3]; in water
  solubility: soluble
